From PubChem BioAssay (NCI)
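At the GI50, growth is halved. The concentration for full growth arrest is given as TGI.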

Tests used:
Assay in all cases: NCI tumour cell line growth inhibition, 384-well format
UACC-62 melanoma = test system: UACC-62 melanoma
NCI-H226 lung = test system: NCI-H226 lung
SW-620 colon = test system: SW-620 colon
TK-10 renal = test system: TK-10 renal
786-0 renal = test system: 786-0 renal
SNB-19 CNS = test system: SNB-19 CNS
A549 NSCLC = test system: A549 NSCLC
SK-MEL-5 melanoma = test system: SK-MEL-5 melanoma
HOP-62 NSCLC = test system: HOP-62 NSCLC
RXF 393 renal = test system: RXF 393 renal
SN12C renal = test system: SN12C renal
EKVX NSCLC = test system: EKVX NSCLC
NCI-H322M lung = test system: NCI-H322M lung
K-562 leukemia = test system: K-562 leukemia
UACC-257 melanoma = test system: UACC-257 melanoma
HS 578T breast = test system: HS 578T breast
CAKI-1 renal = test system: CAKI-1 renal
T-47D breast = test system: T-47D breast
MOLT-4 leukemia = test system: MOLT-4 leukemia
PC-3 prostate = test system: PC-3 prostate
HCT-15 colon = test system: HCT-15 colon
MALME-3M melanoma = test system: MALME-3M melanoma
MDA-MB-231 breast = test system: MDA-MB-231 breast
MDA-MB-435 melanoma = test system: MDA-MB-435 melanoma
NCI-H460 NSCLC = test system: NCI-H460 NSCLC
MCF7 breast = test system: MCF7 breast
OVCAR-4 ovarian = test system: OVCAR-4 ovarian
OVCAR-3 ovarian = test system: OVCAR-3 ovarian
COLO 205 colon = test system: COLO 205 colon
HCT-116 colon = test system: HCT-116 colon
M14 melanoma = test system: M14 melanoma
HOP-92 NSCLC = test system: HOP-92 NSCLC
SNB-75 CNS = test system: SNB-75 CNS
UO-31 renal = test system: UO-31 renal
A498 renal = test system: A498 renal
IGROV1 ovarian = test system: IGROV1 ovarian
HT29 colon = test system: HT29 colon
BT-549 breast = test system: BT-549 breast
OVCAR-8 ovarian = test system: OVCAR-8 ovarian
NCI-H23 lung = test system: NCI-H23 lung
SF-268 CNS = test system: SF-268 CNS
SR leukemia = test system: SR leukemia
SK-OV-3 ovarian = test system: SK-OV-3 ovarian
SK-MEL-28 melanoma = test system: SK-MEL-28 melanoma
HL-60(TB) leukemia = test system: HL-60(TB) leukemia
NCI-H522 lung = test system: NCI-H522 lung
DU-145 prostate = test system: DU-145 prostate
MDA-MB-468 breast = test system: MDA-MB-468 breast
SK-MEL-2 melanoma = test system: SK-MEL-2 melanoma
OVCAR-5 ovarian = test system: OVCAR-5 ovarian
ACHN renal = test system: ACHN renal
SF-295 CNS = test system: SF-295 CNS
SF-539 CNS = test system: SF-539 CNS
U251 glioblastoma = test system: U251 glioblastoma
KM12 colon = test system: KM12 colon

In the case of `C[C@@H](N)COc1ccc(-c2cnc3ccc(N[C@H](C)c4cccc(F)c4)nn23)cc1`, the GI50 (UACC-62 melanoma) is reported as 1.72 µM, the TGI (UACC-62 melanoma) is reported as 3.1 µM and the GI50 (NCI-H226 lung) is reported as 1.43 µM. The TGI (NCI-H226 lung) was 2.83 µM, the GI50 (SW-620 colon) was 1.43 µM and the TGI (SW-620 colon) was 2.78 µM. It also gave a GI50 (TK-10 renal) of 1.52 µM, a TGI (TK-10 renal) of 2.9 µM and a GI50 ([…]-0 renal) of 1.55 µM. It also gave a TGI (786-0 renal) of 2.9 µM, a GI50 (SNB-19 CNS) of 2.06 µM and a TGI (SNB-19 CNS) of 4.04 µM. For the same molecule, the GI50 (A549 NSCLC) was 1.56 µM, the TGI (A549 NSCLC) was 2.94 µM and the GI50 (SK-MEL-5 melanoma) was 1.03 µM. It also gave a TGI (SK-MEL-5 melanoma) of 2.22 µM, a GI50 (HOP-62 NSCLC) of 1.73 µM and a TGI (HOP-62 NSCLC) of 3.16 µM. The GI50 (RXF 393 renal) was 1.17 µM, the TGI (RXF 393 renal) was 2.39 µM and the GI50 (SN12C renal) was 1.56 µM. It also gave a TGI (SN12C renal) of 2.91 µM, a GI50 (EKVX NSCLC) of 1.02 µM and a TGI (EKVX NSCLC) of 2.22 µM. The GI50 (NCI-H322M lung) was 2.18 µM, the TGI (NCI-H322M lung) was 4.1 µM and the GI50 (K-562 leukemia) was 1.11 µM. The TGI (K-562 leukemia) was 2.36 µM, the GI50 (UACC-257 melanoma) was 1.38 µM and the TGI (UACC-257 melanoma) was 2.69 µM. The GI50 (HS 578T breast) was 1.47 µM, the TGI (HS 578T breast) was 2.8 µM and the GI50 (CAKI-1 renal) was 1.68 µM. For the same molecule, the TGI (CAKI-1 renal) was 3.05 µM, the GI50 (T-47D breast) was 1.35 µM and the TGI (T-47D breast) was 2.66 µM. It also gave a GI50 (MOLT-4 leukemia) of 1.13 µM, a TGI (MOLT-4 leukemia) of 2.35 µM and a GI50 (PC-3 prostate) of 1.46 µM. The TGI (PC-3 prostate) was 2.91 µM, the GI50 (HCT-15 colon) was 1.63 µM and the TGI (HCT-15 colon) was 3.04 µM. It also gave a GI50 (MALME-3M melanoma) of 1.68 µM, a TGI (MALME-3M melanoma) of 3.06 µM and a GI50 (MDA-MB-231 breast) of 1.42 µM. The TGI (MDA-MB-231 breast) was 2.76 µM, the GI50 (MDA-MB-435 melanoma) was 1.44 µM and the TGI (MDA-MB-435 melanoma) was 2.76 µM. The TGI (NCI-H460 NSCLC) was 1.44 µM, the GI50 (MCF7 breast) was 1.14 µM and the TGI (MCF7 breast) was 2.37 µM. It also gave a GI50 (OVCAR-4 ovarian) of 1.49 µM, a TGI (OVCAR-4 ovarian) of 3.24 µM and a GI50 (OVCAR-3 ovarian) of 1.62 µM. For the same molecule, the TGI (OVCAR-3 ovarian) was 3.16 µM, the GI50 (COLO 205 colon) was 1.62 µM and the TGI (COLO 205 colon) was 3.01 µM. The GI50 (HCT-116 colon) was 1.49 µM, the TGI (HCT-116 colon) was 2.86 µM and the GI50 (M14 melanoma) was 1.73 µM. The TGI (M14 melanoma) was 3.11 µM, the GI50 (HOP-92 NSCLC) was 1.51 µM and the TGI (HOP-92 NSCLC) was 2.85 µM. The GI50 (SNB-75 CNS) was 1.59 µM, the TGI (SNB-75 CNS) was 2.96 µM and the GI50 (UO-31 renal) was 1.79 µM. For the same molecule, the TGI (UO-31 renal) was 3.19 µM, the GI50 (A498 renal) was 1.59 µM and the TGI (A498 renal) was 2.96 µM. The GI50 (IGROV1 ovarian) was 1.62 µM, the TGI (IGROV1 ovarian) was 3.05 µM and the GI50 (HT29 colon) was 1.3 µM. The TGI (HT29 colon) was 2.59 µM, the GI50 (BT-549 breast) was 1.37 µM and the TGI (BT-549 breast) was 2.66 µM. For the same molecule, the GI50 (OVCAR-8 ovarian) was 1.6 µM, the TGI (OVCAR-8 ovarian) was 2.97 µM and the GI50 (NCI-H23 lung) was 1.54 µM. For the same molecule, the TGI (NCI-H23 lung) was 3.15 µM, the GI50 (SF-268 CNS) was 1.59 µM and the TGI (SF-268 CNS) was 2.96 µM. It also gave a GI50 (SR leukemia) of 0.0345 µM, a TGI (SR leukemia) of 0.125 µM and a GI50 (SK-OV-3 ovarian) of 1.47 µM. It also gave a TGI (SK-OV-3 ovarian) of 2.85 µM, a GI50 (SK-MEL-28 melanoma) of 1.63 µM and a TGI (SK-MEL-28 melanoma) of 3.01 µM. For the same molecule, the GI50 (HL-60(TB) leukemia) was 1.07 µM, the TGI (HL-60(TB) leukemia) was 2.27 µM and the GI50 (NCI-H522 lung) was 1.16 µM. It also gave a TGI (NCI-H522 lung) of 2.39 µM, a GI50 (DU-145 prostate) of 1.53 µM and a TGI (DU-145 prostate) of 2.96 µM. For the same molecule, the GI50 (MDA-MB-468 breast) was 1 µM, the TGI (MDA-MB-468 breast) was 2.17 µM and the GI50 (SK-MEL-2 melanoma) was 1.27 µM. For the same molecule, the TGI (SK-MEL-2 melanoma) was 2.54 µM, the GI50 (OVCAR-5 ovarian) was 1.25 µM and the TGI (OVCAR-5 ovarian) was 2.61 µM. It also gave a GI50 (ACHN renal) of 1.57 µM, a TGI (ACHN renal) of 2.94 µM and a GI50 (SF-295 CNS) of 1.64 µM. It also gave a TGI (SF-295 CNS) of 3.02 µM, a GI50 (SF-539 CNS) of 1.42 µM and a TGI (SF-539 CNS) of 2.74 µM. For the same molecule, the GI50 (U251 glioblastoma) was 1.6 µM, the TGI (U251 glioblastoma) was 2.96 µM and the GI50 (KM12 colon) was 1.6 µM. It also gave a TGI (KM12 colon) of 3 µM.
